The values below come from patent US9415049B2, “Heteroaryl compounds and uses thereof” (Celgene Avilomics Research, Inc., priority 2013, dated 2016).

This assay addresses T1, BTK autophosphorylation (Phospho Y223 Btk) in Ramos cells (Homo sapiens, UniProt Q06187).
T1 construct: endogenous in cells; host or cells: Ramos cells
As to the kind of experiment: Btk Ramos cell signaling immunoblot analysis, phospho-Btk. As to conditions: 1 hour compound incubation, anti-human IgM stimulation, phospho-Btk normalized to total Btk, read-out: pBtk EC50. Type of assay: cell-based. On the procedure:
The following example describes testing certain compounds according to the invention for inhibition of BTK activity. Ramos cells were incubated in serum-free RPMI medium for 1-1.5 hours. Cells were then centrifuged for 5 minutes at 1100 RPM and resuspended in serum-free RPMI in 15 mL roundbottom Corning tubes (˜2×10^6 cells/mL in 4 mL/tube). The compound was diluted in DMSO and was added to the cells to achieve a final concentration of 0.0003, 0.001, 0.003, 0.01, 0.03, 0.1, 0.3, and 1.0 μM. Cells were then incubated for 1 hour at 37° C. Following incubation, cells were spun at 1100 RPM for 5 minutes and then resuspended in 100 μL of serum-free RPMI. […] Supernatant was transferred to a fresh tube and analyzed for protein content. […]
10 μg of protein was denatured by adding 1:10 (v:v) of NuPage Reducing Agent plus 1:4 (v:v) of LDS Loading Buffer. […] The membrane was then scanned on a LiCor Odyssey Scanner using infrared fluorescence detection.
Data analysis was accomplished using the analysis package found in Odyssey Infrared Imaging System software in which intensities of total Btk and phospho-Btk were measured. Phospho-Btk was normalized to total Btk protein in each lane as a loading control and results are expressed as % activity compared to the DMSO control (100%) Inhibition of phospho-PLCγ2 was quantitated in a similar manner. […]
For orientation: A western blot detects proteins with antibodies after separation by electrophoresis.

Broadly, the EC50 is the concentration giving half of the maximal effect.

T1 sequence (Q06187 whole entry): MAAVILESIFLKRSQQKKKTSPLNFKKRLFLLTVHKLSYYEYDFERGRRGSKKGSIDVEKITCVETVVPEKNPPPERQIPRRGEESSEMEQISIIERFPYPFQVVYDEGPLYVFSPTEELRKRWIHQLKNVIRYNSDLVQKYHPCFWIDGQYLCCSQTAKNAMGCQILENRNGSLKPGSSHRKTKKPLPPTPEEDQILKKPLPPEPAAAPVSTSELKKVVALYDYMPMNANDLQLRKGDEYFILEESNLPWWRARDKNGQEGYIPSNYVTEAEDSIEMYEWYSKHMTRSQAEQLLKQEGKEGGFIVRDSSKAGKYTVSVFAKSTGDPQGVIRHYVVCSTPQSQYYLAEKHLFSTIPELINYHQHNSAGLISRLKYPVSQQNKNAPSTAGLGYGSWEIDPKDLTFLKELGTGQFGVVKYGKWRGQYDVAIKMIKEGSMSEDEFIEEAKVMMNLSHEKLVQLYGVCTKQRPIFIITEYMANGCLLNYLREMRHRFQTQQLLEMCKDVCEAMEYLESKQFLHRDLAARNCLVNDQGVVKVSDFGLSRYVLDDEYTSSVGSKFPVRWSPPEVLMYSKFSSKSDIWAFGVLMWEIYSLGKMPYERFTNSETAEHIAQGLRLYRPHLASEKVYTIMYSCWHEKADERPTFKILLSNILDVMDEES

As for `C=CC(=O)Nc1cccc(Nc2nc(Nc3ccc(OCCO)cc3)ncc2F)c1` [Compound I-1, N-(3-((5-fluoro-2-((4-(2-hydroxyethoxy)phenyl)amino)pyrimidin-4-yl)amino)phenyl)acrylamide], the EC50 is below 10 nM.

As to `C=CC(=O)Nc1cccc(Nc2nc(Nc3ccc(O)cc3)ncc2F)c1` [Compound I-3, N-(3-((5-fluoro-2-((4-hydroxyphenyl)amino)pyrimidin-4-yl)amino)phenyl)acrylamide], the EC50 lay in the range of 10 to 50 nM.
